The results in this text go back to ChEMBL document CHEMBL5230122, “Natural products and other inhibitors of F1FO ATP synthase” (Eur J Med Chem, 2020).

One experiment relates to A549. In words: Antiproliferative activity against human A549 cells assessed as reduction in cell proliferation incubated for 48 hrs by xCELLigence RTCA system analysis. The experiment is classed as functional, cell-based. Particulars: A549, 48 h.
For the next experiment, the system named is CL1-0. As to the kind of experiment: Antiproliferative activity against human CL1-0 cells assessed as reduction in cell proliferation incubated for 48 hrs by xCELLigence RTCA system analysis. To be noted: CL1-0, 48 h. The experiment is classed as functional, cell-based.
The test system of a further experiment is T47D. As to the kind of experiment: Antiproliferative activity against human T47D assessed as inhibition of cell viability incubated for 72 hrs by CCK-8 assay. It is filed as functional, cell-based.
The subject of experiment [1] is MCF7. As to the kind of experiment: Antiproliferative activity against human MCF7 assessed as inhibition of cell viability incubated for 72 hrs by CCK-8 assay. Particulars: MCF7, 72 h. It is filed as functional, cell-based.
Experiment [2] can be described thus: Non-competitive inhibition of bovine heart mitochondrial F0F1-ATP synthase incubated for 25 mins by ATPase assay. It is filed as mitochondria, Bos taurus, Mitochondria.
The nature of experiment [3]: Anticancer activity against rat E1A-3Y1-3 cells assessed as reduction in cell viability incubated for 72 hrs by MTT assay. It is filed as functional, cell-based. Particulars: E1A-3Y1-3, 72 h. For orientation: Tetrazolium dyes change colour on reduction, which living cells bring about.
The nature of experiment [4]: Anticancer activity against rat E1A-3Y1-1 cells assessed as reduction in cell viability incubated for 72 hrs by MTT assay. It is filed as functional, cell-based. Particulars: E1A-3Y1-1, 72 h.
A short description of experiment [5]: Anticancer activity against rat Ad12-3Y1-Z11 cells assessed as reduction in cell viability incubated for 72 hrs by MTT assay. It is filed as functional, cell-based. To be noted: Ad12-3Y1-Z11, 72 h.
Another experiment deals with HeLa S3. As to the kind of experiment: Anticancer activity against human HeLa S3 cells assessed as reduction in cell viability incubated for 48 hrs by WST-8 assay. The experiment is classed as functional, cell-based. To be noted: HeLa S3, 48 h.
The nature of experiment [6]: Anticancer activity against rat Ad12-3Y1-W5 cells assessed as reduction in cell viability incubated for 72 hrs by MTT assay. It is filed as functional, cell-based. Particulars: Ad12-3Y1-W5, 72 h.
Experiment [7] in a line: Anticancer activity against rat Ad12-3Y1-Z19 cells assessed as reduction in cell viability incubated for 72 hrs by MTT assay. Particulars: Ad12-3Y1-Z19, 72 h. It is filed as functional, cell-based.
Experiment [8] can be described thus: Anticancer activity against rat E1A-3Y1-2 cells assessed as reduction in cell viability incubated for 72 hrs by MTT assay. To be noted: E1A-3Y1-2, 72 h. The experiment is classed as functional, cell-based.
Experiment [9] is described as follows: Anticancer activity against rat Ad12-3Y1-Z13 cells assessed as reduction in cell viability incubated for 72 hrs by MTT assay. It is filed as functional, cell-based. Particulars: Ad12-3Y1-Z13, 72 h.
The subject of a further experiment is SW480. As to the kind of experiment: Anticancer activity against human SW480 cells assessed as reduction in cell viability incubated for 72 hrs by CellTiter-Glo luminescent cell viability assay. It is filed as functional, cell-based. Particulars: SW480, 72 h. Background: In ATP-based viability assays light output follows the ATP content of the culture.
The test system of a further experiment is SK-OV-3. In words: Anticancer activity against human SK-OV-3 cells assessed as reduction in cell viability incubated for 72 hrs by CellTiter-Glo luminescent cell viability assay. The experiment is classed as functional, cell-based. To be noted: SK-OV-3, 72 h.
Another experiment deals with U-937. As to the kind of experiment: Anticancer activity against human U-937 cells assessed as reduction in cell viability incubated for 72 hrs by CellTiter-Glo luminescent cell viability assay. It is filed as functional, cell-based. To be noted: U-937, 72 h.
The subject of the next experiment is Jurkat. In words: Anticancer activity against human Jurkat cells assessed as reduction in cell viability incubated for 72 hrs by CellTiter-Glo luminescent cell viability assay. It is filed as functional, cell-based.
In a further experiment the test system is LoVo. As to the kind of experiment: Anticancer activity against human LoVo cells assessed as reduction in cell viability incubated for 72 hrs by CCK-8 assay. The experiment is classed as functional, cell-based.
The next experiment concerns KB 3-1. As to the kind of experiment: Anticancer activity against human KB-3-1 cells assessed as reduction in cell viability incubated for 72 hrs by CellTiter-Glo luminescent cell viability assay. The experiment is classed as functional, cell-based. Particulars: KB 3-1, 72 h.
A further experiment has as its system NCI-H1299. As to the kind of experiment: Anticancer activity against human NCI-H1299 cells assessed as reduction in cell viability incubated for 72 hrs by CCK-8 assay. Particulars: NCI-H1299, 72 h. It is filed as functional, cell-based.
Another experiment has as its system HL-60. As to the kind of experiment: Anticancer activity against human HL-60 cells assessed as reduction in cell viability incubated for 72 hrs by CCK-8 assay. It is filed as functional, cell-based. To be noted: HL-60, 72 h.
A further experiment deals with HCT-116. In words: Anticancer activity against human HCT-116 cells assessed as reduction in cell viability incubated for 72 hrs by CellTiter-Glo luminescent cell viability assay. To be noted: HCT-116, 72 h. It is filed as functional, cell-based.
Experiment [10] deals with MCF7. In words: Anticancer activity against human MCF7 cells assessed as reduction in cell viability incubated for 72 hrs by CCK-8 assay. The experiment is classed as functional, cell-based. Particulars: MCF7, 72 h.
The nature of experiment [11]: Inhibition of bovine heart mitochondrial F0F1-ATP synthase assessed as reduction in NADH oxidation for 40 mins by MitoTox Complex V OXPHOS activity microplate assay. It is filed as mitochondria, Bos taurus, Mitochondria.
The nature of experiment [12]: Inhibition of thrombin-induced hyperpermeability of human HMEC-1 cells at 10 uM preincubated for 20 mins followed by thrombin addition and measured for 60 mins by transwell assay. The experiment is classed as functional. To be noted: HMEC-1, 1.333 h, time 80 min.
A further experiment has as its system HepG2. In words: Cytotoxicity against human HepG2 cells assessed as reduction in glucose induced mitochondrial toxicity by measuring ATP depletion incubated for 24 hrs by CellTiter-Glo luminescent cell viability assay. It is filed as functional, cell-based. Particulars: HepG2, 24 h.
The nature of experiment [13]: Inhibition of bovine heart mitochondrial F0F1-ATP synthase for 1 hr by microplate reader analysis. The experiment is classed as mitochondria, Bos taurus, Mitochondria.
The test system of another experiment is CAKI-1. In words: Antiproliferative activity against human CAKI-1 cells assessed as reduction in cell proliferation incubated for 96 hrs by Cell TiterGlo assay. The experiment is classed as functional, cell-based. Particulars: CAKI-1, 96 h.
Experiment [14] has as its system PC-12. As to the kind of experiment: Cytoprotective activity against KCN induced-toxicity in rat PC-12 cells assessed as reduction in cell death for 24 hrs by MTT assay. It is filed as functional, cell-based. To be noted: PC-12, 24 h.
A further experiment is filed under the species Rattus norvegicus. As to the kind of experiment: Inhibition of rat liver mitochondrial F0F1-ATP synthase hydrolytic activity at 5 uM in presence of MgATP. Particulars: Mitochondria.
In experiment [15] the test system is PC-12. As to the kind of experiment: Cytoprotective activity against glutamate induced-toxicity in rat PC-12 cells assessed as reduction in cell death for 24 hrs by MTT assay. The experiment is classed as functional, cell-based. Particulars: PC-12, 24 h.
Experiment [16] can be described thus: Binding affinity to mitochondrial ATP5A in mouse HT-22 cells measured after 15 mins by LC/MS/MS based pull-down assay. The experiment is classed as cell-based.
The next experiment relates to Cortical neurone. In words: Neuroprotective activity against rat Primary cortical neuron cells assessed as rescue of cell death incubated for 2 days by fluorescent live-dead assay. Particulars: 48 h. The experiment is classed as functional, cell-based.
A short description of experiment [17]: Neuroprotective activity against amyloid beta induced cell death in rat Primary hippocampal neuron cells assessed as increase in cell viability incubated for 2 days by lactate dehydrogenase release assay. It is filed as functional, cell-based. Particulars: Hippocampal neurone, 48 h.
A short description of experiment [18]: Inhibition of bovine heart mitochondria ATP synthase in presence of PEP, PK, LDH and NADH for 1 hrs by MitoTox microplate assay. The arrangement: species or system Bos taurus.

As to `COc1cc(=O)oc(/C=C/C=C/C=C/C(C)=C/[C@]2(C)O[C@H](C)[C@](C)(O)[C@H]2O)c1C`, the half-inhibitory concentration (IC50) with A549 and with CL1-0 was 1500 nM in each case.

As for `CCC(C)N(C)C(=O)c1cc2ccccc2c(-c2ccccc2Cl)n1` (stereo not given) [PK-11195], the values for the IC50 in the experiment on T47D and with MCF7 [1] were 6 nM and 5.4 nM, respectively.

Take `NCCc1ccc(Oc2ccc(O)cc2)c(I)c1`: in experiment [2], the IC50 (commonly the concentration at which inhibition is half-maximal) was 27.5 µM.

On to `CC[C@H](C)[C@@H]1NC(=O)[C@H](NC(=O)[C@H](C)NC(=S)[C@H](C)NC(=S)[C@H](C)NC(=S)[C@H](C)NC(=S)[C@H](CCSC)NC(=S)[C@@H](NC(=O)C(C)=O)C(C)C)CS/C=C\NC(=O)[C@H](C(O)c2cn(C)c[n+]2C)NC(=O)[C@H](CC(C)C)NC(=O)[C@H](C)NC1=O` (stereo not given in full), for which the IC50 is 21 nM in experiment [3]; 21 nM in experiment [4]; 16 nM in experiment [5]; 360 nM with HeLa S3; 16 nM in experiment [6]; 16 nM in experiment [7]. Further, the IC50 is 21 nM in experiment [8] and 16 nM in experiment [9].

Consider `CC(=O)C(=O)N[C@H](C(=S)N[C@@H](CC[S+](C)[O-])C(=S)N[C@@H](C)C(=O)N[C@@H](C)C(=S)N[C@@H](C)C(=S)N[C@@H](C)C(=O)N[C@H]1C(=O)N[C@@H](C(C)C)C(=O)N[C@@H](C)C(=O)N[C@@H](Cc2ccccc2)C(=O)N[C@@H](C(O)c2cn(C)c[n+]2C)C(=O)N/C=C\SC1C)C(C)C` (stereo not given in full), for which the IC50 in the experiment with SW480 came to 12.2 µM; in the experiment on SK-OV-3, 20.9 µM; in the experiment on U-937 it was 16.9 µM; in the experiment with Jurkat, 5.28 µM; in the experiment with LoVo, 1180 nM; in the experiment with KB 3-1 it was 4.49 µM. In addition, the IC50 in the experiment with NCI-H1299 stood at 5.02 µM; in the experiment with HL-60, 1470 nM; in the experiment on HCT-116 it was 510 nM; with MCF7 [10], 830 nM.

Regarding `C=C1CC[C@@]2(OC1)O[C@H]1C[C@H]3[C@@H]4CC=C5C[C@H](O)C[C@H](O[C@@H]6OC[C@H](O)[C@H](O)[C@H]6O[C@@H]6O[C@@H](C)[C@H](O)[C@@H](O)[C@H]6O)[C@]5(C)[C@H]4CC[C@]3(C)[C@H]1[C@@H]2C`, the Ki (as a rule, a measure of affinity in units of concentration, obtained from inhibition or displacement) in [11] came out at 10 µM. Also, the inhibition (as a rule, the relative decrease from the control value, in per cent) at 10 µM in experiment [12] was found to be 41.9%.

Turning to `Cc1oncc1C(=O)Nc1ccc(C(F)(F)F)cc1` [LEFLUNOMIDE], the 50% inhibitory concentration (IC50) with HepG2 was determined as 110 µM; in [13] it was 35 µM.

Consider `Nc1ncnc2c1nc(Cl)n2[C@@H]1O[C@H](CO)[C@@H](O)[C@H]1O` [8-CHLOROADENOSINE], for which the IC50 in the experiment with CAKI-1 worked out at 2000 nM.

For `CCOC(=O)C1=C(C)NC2=C(C=Nc3ccccc3N2)[C@@H]1c1ccccc1[N+](=O)[O-]`, the concentration for half-maximal inhibition (IC50) in the experiment with PC-12 [14] is 8 nM; with PC-12 [15], 29 nM. In addition, the inhibition in the experiment filed under Rattus norvegicus came to 67%.

As for `COc1cccc(/C=N/N(C(=O)C(F)(F)F)c2ccc(C)cc2C)c1` [J147], the figures for the EC50 (in experiment [16]; with Cortical neurone; in experiment [17]) were 20 nM, 25 nM and 200 nM, respectively.

For `CNC(=O)c1cc(Oc2ccc(NC(=O)Nc3ccc(Cl)c(C(F)(F)F)c3)cc2)ccn1` [SORAFENIB], in experiment [18], the half-inhibitory concentration (IC50) came to 2500 nM.
